Assay results as given in US9758505B2, “3-(indol-3-yl)-pyridine derivatives, pharmaceutical compositions and methods for use” (ITEOS THERAPEUTICS, priority 2014, dated 2017).
Where a name gives a salt, the structure may show the parent alone.

Legend:
human TDO2 [1] = molecular target: T1, human TDO2 (Homo sapiens (Human), UniProt P48775); assay: Cellular assay for TDO2 activity, hTDO2-overexpressing P815 cells; assay type: cell-based; conditions: murine mastocytoma P815 cells overexpressing hTDO2, overnight incubation, kynurenine in supernatant
T1 sequence (P48775 whole entry): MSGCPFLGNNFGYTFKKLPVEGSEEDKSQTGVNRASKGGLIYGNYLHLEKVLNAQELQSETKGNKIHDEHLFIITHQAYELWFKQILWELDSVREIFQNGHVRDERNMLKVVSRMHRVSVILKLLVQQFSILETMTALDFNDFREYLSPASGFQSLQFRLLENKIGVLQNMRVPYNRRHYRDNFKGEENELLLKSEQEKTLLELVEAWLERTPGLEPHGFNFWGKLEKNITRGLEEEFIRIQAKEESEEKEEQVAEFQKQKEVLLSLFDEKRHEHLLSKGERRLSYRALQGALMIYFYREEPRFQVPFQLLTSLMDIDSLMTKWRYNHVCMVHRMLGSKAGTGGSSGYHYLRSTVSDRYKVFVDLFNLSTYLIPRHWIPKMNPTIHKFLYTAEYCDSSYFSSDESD
Experimental: The compounds of Formula I inhibit the activity of human TDO2 in cells.
The assay (adapted from Pilotte L et al., Proc Natl Acad Sci USA, 2012, 109(7), 2497-502) was performed in 96-well flat bottom plates seeded with murine mastocytoma P815 cells overexpressing hTDO2 (prepared as described in Pilotte et al., PNAS, 2012, 109(7), 2497-2502), at a concentration of 5×10^4 cells/well in a final volume of 200 μL. To determine TDO or IDO activity, the cells were incubated overnight at 37° C. at 5% CO2 in IMDM (Invitrogen) supplemented with 2% FBS and 2% penicillin/streptomycin in the presence of the compounds of the present invention, at different concentrations. The cells may be obtained from the American Type Cuylture Collecion [ATCC® TIB-64™ or commercially, e.g., from Sigma-Aldrich or Life Technologies.]
(§1) The plates were then centrifuged 5 min at 1000 rpm, and 100 μL of the supernatant were collected in a conical plate, 30 uL of TCA 30% were added and a further centrifugated at 3000×g for 10 minutes. 100 μL of the supernatant were collected in a flat bottomed plate and 100 μL of 2% (w/v) 4-(dimethylamino)-benzaldehyde in acetic acid and incubated for 5 min at room temperature. Kynurenine concentrations were determined by measuring the absorbance at 480 nm. A standard curve was made with pure kynurenine. The TDO activity was measured as described above using ten serial concentrations of the compounds of the present invention. Data were fitted using the Prism™ software (GraphPad Software, Inc.) using standard software configurations.

human TDO2 [2] = molecular target: T1, human TDO2; assay: Cellular assay for TDO2 activity, A172 cells naturally expressing hTDO2; assay type: cell-based; conditions: human glioblastoma A172 cells, overnight incubation, kynurenine in supernatant
Experimental: A172 is a cell line derived from human brain glioblastoma cells.
To determine TDO, the cells were incubated overnight at 37° C. at 5% CO2 in IMDM (Invitrogen) supplemented with 2% FBS and 2% penicillin/streptomycin in the presence of the compounds of the present invention, at different concentrations.
as §1

Row | IC50 (human TDO2 [1]) | IC50 (human TDO2 [2]) | Compound
1 | 1000 nM |  | CC(=O)NCCNc1ccc(-c2c[nH]c3cc(F)ccc23)cn1 [Example 50, N-(2-((5-(6-fluoro-1H-indol-3-yl)pyridin-2-yl)amino)ethyl)acetamide]
2 | 160 nM | 420 nM | CN(c1ccc(-c2c[nH]c3cc(F)ccc23)cn1)S(C)(=O)=O [Example 54, N-(5-(6-fluoro-1H-indol-3-yl)pyridin-2-yl)-N-methylmethanesulfonamide]
3 | 240 nM |  | NS(=O)(=O)CCNc1ccc(-c2c[nH]c3cc(F)ccc23)cn1 [Example 29, 2-((5-(6-fluoro-1H-indol-3-yl)pyridin-2-yl)amino)ethanesulfonamide]
4 |  | 2300 nM | O=C(O)Cn1c(=O)[nH]c2cc(-c3c[nH]c4cc(F)ccc34)cnc21 [Example 85, 2-(6-(6-fluoro-1H-indol-3-yl)-2-oxo-1H-imidazo[4,5-b]pyridin-3(2H)-yl)acetic acid]
5 |  | 370 nM | NC(=O)CCNS(=O)(=O)c1ccc(-c2c[nH]c3cc(F)ccc23)cn1 [Example 99, 3-(5-(6-fluoro-1H-indol-3-yl)pyridine-2-sulfonamido)propanamide]
6 |  | 310 nM | NS(=O)(=O)c1ccc(-c2c[nH]c3cc(F)ccc23)cn1 [Example 80, 5-(6-fluoro-1H-indol-3-yl)pyridine-2-sulfonamide hydrochloride]
7 | 450 nM |  | C[C@H](N)C(=O)Nc1ccc(-c2c[nH]c3cc(F)ccc23)cn1 [Example 37, (S)-2-amino-N-(5-(6-fluoro-1H-indol-3-yl)pyridin-2-yl)propanamide]
8 |  | 610 nM | CCOC(=O)Cn1c(=O)[nH]c2cc(-c3c[nH]c4cc(F)ccc34)cnc21 [Example 86, ethyl 2-(6-(6-fluoro-1H-indol-3-yl)-2-oxo-1H-imidazo[4,5-b]pyridin-3(2H)-yl)acetate]
9 |  | 1500 nM | O=C1CNCCN1c1ccc(-c2c[nH]c3cc(F)ccc23)cn1 [Example 83, 1-(5-(6-fluoro-1H-indol-3-yl)pyridin-2-yl)piperazin-2-one]
10 | 350 nM |  | NCC(=O)Nc1ccc(-c2c[nH]c3cc(F)ccc23)cn1 [Example 39, 2-amino-N-(5-(6-fluoro-1H-indol-3-yl)pyridin-2-yl)acetamide]
11 | 490 nM |  | CC(=O)N(C)c1ccc(-c2c[nH]c3cc(F)ccc23)cn1 [Example 8, N-(5-(6-fluoro-1H-indol-3-yl)pyridin-2-yl)-N-methylacetamide]
12 |  | 360 nM | CN(CCC(N)=O)S(=O)(=O)c1ccc(-c2c[nH]c3cc(F)ccc23)cn1 [Example 101, 3-(5-(6-fluoro-1H-indol-3-yl)-N-methylpyridine-2-sulfonamido)propanamide]
13 |  | 870 nM | CS(=O)(=O)NCCC(=O)Nc1ccc(-c2c[nH]c3cc(F)ccc23)cn1 [Example 64, N-(5-(6-fluoro-1H-indol-3-yl)pyridin-2-yl)-3-(methylsulfonamido)propanamide]
14 |  | 360 nM | NC(=O)Nc1ccc(-c2c[nH]c3cc(F)ccc23)cn1 [Example 63, 1-(5-(6-fluoro-1H-indol-3-yl)pyridin-2-yl)urea]
15 |  | 820 nM | CN(C)C(=O)Nc1ccc(-c2c[nH]c3cc(F)ccc23)cn1 [Example 65, 3-(5-(6-fluoro-1H-indol-3-yl)pyridin-2-yl)-1,1-dimethylurea]
16 |  | 740 nM | CC(C)[C@H](N)C(=O)Nc1ccc(-c2c[nH]c3cc(F)ccc23)cn1 [Example 38, (S)-2-amino-N-(5-(6-fluoro-1H-indol-3-yl)pyridin-2-yl)-3-methylbutanamide]
17 |  | 4100 nM | O=C1Cc2ncc(-c3c[nH]c4cc(F)ccc34)cc2N1 [Example 76, 6-(6-fluoro-1H-indol-3-yl)-1H-pyrrolo[3,2-b]pyridin-2(3H)-one]

The remaining lines, values behind:

Row | Compound | IC50 (human TDO2 [1]) | IC50 (human TDO2 [2])
18 | O=c1ccc(-c2c[nH]c3cc(F)ccc23)c[nH]1 [Example 69, 5-(6-fluoro-1H-indol-3-yl)pyridin-2(1H)-one] | 260 nM | 370 nM
19 | CN(C)CCS(=O)(=O)NC1CCN(c2ccc(-c3c[nH]c4cc(F)ccc34)cn2)CC1 [Example 56, 2-(dimethylamino)-N-(1-(5-(6-fluoro-1H-indol-3-yl)pyridin-2-yl)piperidin-4-yl)ethanesulfonamide] | 240 nM | 640 nM
20 | O=C(Nc1ccc(-c2c[nH]c3cc(F)ccc23)cn1)C1CCNCC1 [Example 35, N-(5-(6-fluoro-1H-indol-3-yl)pyridin-2-yl)piperidine-4-carboxamide] | 250 nM | 530 nM
21 | Cc1ccc2c(-c3ccc(S(=O)(=O)N4CCNCC4)nc3)c[nH]c2c1 [Example 98, 6-methyl-3-(6-(piperazin-1-ylsulfonyl)pyridin-3-yl)-1H-indole] |  | 1400 nM
22 | O=S(=O)(c1ccc(-c2c[nH]c3cc(F)ccc23)cn1)N1CCNCC1 [Example 87, 6-fluoro-3-(6-(piperazin-1-ylsulfonyl)pyridin-3-yl)-1H-indole] |  | 230 nM
23 | CS(=O)(=O)N1CCN(S(=O)(=O)c2ccc(-c3c[nH]c4cc(F)ccc34)cn2)CC1 [Example 90, 6-fluoro-3-(6-((4-(methylsulfonyl)piperazin-1-yl)sulfonyl)pyridin-3-yl)-1H-indole] |  | 1400 nM
24 | O=S(=O)(c1ccc(-c2c[nH]c3cc(F)c(F)cc23)cn1)N1CCNCC1 [Example 94, 5,6-difluoro-3-(6-(piperazin-1-ylsulfonyl)pyridin-3-yl)-1H-indole] |  | 240 nM
25 | COCCS(=O)(=O)NC1CCN(c2ccc(-c3c[nH]c4cc(F)ccc34)cn2)CC1 [Example 57, N-(1-(5-(6-fluoro-1H-indol-3-yl)pyridin-2-yl)piperidin-4-yl)-2-methoxyethanesulfonamide] |  | 1400 nM
26 | NCCS(=O)(=O)NC1CCN(c2ccc(-c3c[nH]c4cc(F)ccc34)cn2)CC1 [Example 55, 2-amino-N-(1-(5-(6-fluoro-1H-indol-3-yl)pyridin-2-yl)piperidin-4-yl)ethanesulfonamide] | 290 nM | 990 nM
27 | NS(=O)(=O)CCCNc1ccc(-c2c[nH]c3cc(F)ccc23)cn1 [Example 23, 3-((5-(6-fluoro-1H-indol-3-yl)pyridin-2-yl)amino)propane-1-sulfonamide] | 430 nM | 490 nM
28 | O=C(Nc1ccc(-c2c[nH]c3cc(F)ccc23)cn1)C1CC1 [Example 52, N-(5-(6-fluoro-1H-indol-3-yl)pyridin-2-yl)cyclopropanecarboxamide] | 120 nM | 
29 | CN(CCNS(=O)(=O)c1ccc(-c2c[nH]c3cc(F)ccc23)cn1)S(C)(=O)=O [Example 89, 5-(6-fluoro-1H-indol-3-yl)-N-(2-(N-methylmethylsulfonamido)ethyl)pyridine-2-sulfonamide] |  | 350 nM
30 | CS(=O)(=O)NC1CCN(c2ccc(-c3c[nH]c4ccc(Cl)cc34)cn2)CC1 [Example 77, N-(1-(5-(5-chloro-1H-indol-3-yl)pyridin-2-yl)piperidin-4-yl)methanesulfonamide] |  | 2800 nM
31 | Cn1cc(-c2c[nH]c3cc(F)ccc23)ccc1=O [Example 68, 5-(6-fluoro-1H-indol-3-yl)-1-methylpyridin-2(1H)-one] |  | 480 nM
32 | CC(=O)NCCNS(=O)(=O)c1ccc(-c2c[nH]c3cc(F)ccc23)cn1 [Example 92, N-(2-(5-(6-fluoro-1H-indol-3-yl)pyridine-2-sulfonamido)ethyl)acetamide] |  | 330 nM
33 | CS(=O)(=O)NC1CCN(c2ccc(-c3c[nH]c4cc(Cl)ccc34)cn2)CC1 [Example 72, N-(1-(5-(6-chloro-1H-indol-3-yl)pyridin-2-yl)piperidin-4-yl)methanesulfonamide] |  | 4700 nM
34 | CS(=O)(=O)NC1CCN(c2ccc(-c3c[nH]c4ccc(F)cc34)cn2)CC1 [Example 81, N-(1-(5-(5-fluoro-1H-indol-3-yl)pyridin-2-yl)piperidin-4-yl)methanesulfonamide] |  | 2000 nM
35 | CS(=O)(=O)NC1CCN(c2ccc(-c3c[nH]c4ccccc34)cn2)CC1 [Example 79, N-(1-(5-(1H-indol-3-yl)pyridin-2-yl)piperidin-4-yl)methanesulfonamide] |  | 1200 nM
36 | NCC(=O)NCCNc1ccc(-c2c[nH]c3cc(F)ccc23)cn1 [Example 51, 2-amino-N-(2-((5-(6-fluoro-1H-indol-3-yl)pyridin-2-yl)amino)ethyl)acetamide] | 850 nM | 
37 | CC(=O)N1CCC(C(=O)Nc2ccc(-c3c[nH]c4cc(F)ccc34)cn2)CC1 [Example 42, 1-acetyl-N-(5-(6-fluoro-1H-indol-3-yl)pyridin-2-yl)piperidine-4-carboxamide] |  | 520 nM
38 | N#Cc1ccc2[nH]cc(-c3ccc(S(=O)(=O)N4CCNCC4)nc3)c2c1 [Example 97, 3-(6-(piperazin-1-ylsulfonyl)pyridin-3-yl)-1H-indole-5-carbonitrile] |  | 2400 nM
39 | Fc1ccc2c(-c3ccc(NC4CCOCC4)nc3)c[nH]c2c1 [Example 100, 5-(6-fluoro-1H-indol-3-yl)-N-(tetrahydro-2H-pyran-4-yl)pyridin-2-amine] |  | 620 nM
